Where two headings read alike, the source gives them in different places.
Experiments:
[1] = Optical characteristics in 0.1 M phosphate buffer containing 1% DMSO, Table 3; type: physicochemical; conditions: for λmax,fl: 0.1 M phosphate buffer (pH 9) containing 1% DMSO; for Φfl: 0.1 M phosphate buffer (pH 9), standard 2-Me TokyoMagenta (0.42); for λmax,abs pH 9 / λmax,abs pH 3: 0.1 M phosphate buffer containing 1% DMSO
Protocol: The measurement was performed in a 0.1 M phosphate buffer (pH 9) containing 1% DMSO. pKa was obtained from the absorbance measured in a phosphate buffer (pH 9) by monophasic or biphasic curve fitting. The quantum yield was obtained by using the quantum yield of 2-Me TokyoMagenta (0.42) in a 0.1 M phosphate buffer (pH 9) as the standard.

[2] = Oxidation potential of the benzene ring moiety; type: physicochemical; conditions: vs saturated calomel electrode (SCE)
Protocol: (§1) Relationship between the fluorescence quantum yield and the oxidation potential of the benzene ring moiety of 2-Me TokyoMagenta synthesized in Example 1 mentioned above, as well as 2,4-DiMe TokyoMagenta, 2,5-DiMe TokyoMagenta, 2-OMe TokyoMagenta, 2-OMe-5-Me TokyoMagenta, and 2,5-OMe TokyoMagenta of (a) to (e) mentioned above was investigated. The fluorescence quantum yield was measured in a sodium phosphate buffer (pH 9) by using rhodamine B (Φfl=0.65) in ethanol as a control for fluorescence standard, and the oxidation potential was indicated with respect to a saturated calomel electrode (SCE) as a control. The dots plotted in FIG. 1 indicate the results of 2,4-DiMe TokyoMagenta, 2,5-DiMe TokyoMagenta, 2-OMe TokyoMagenta, 2-OMe-5-Me TokyoMagenta, and 2,5-OMe TokyoMagenta from the right, respectively. As clearly seen from the results shown in Table 1 and FIG. 1, the fluorescence quantum yields of the compounds changed depending on the oxidation potentials of the benzene ring moiety.

[3] = Fluorescence quantum yield in sodium phosphate buffer (pH 9), rhodamine B as fluorescence standard; type: physicochemical; conditions: standard rhodamine B (Φfl=0.65) in ethanol
Protocol: as §1
The fluorescence quantum yield was measured in a sodium phosphate buffer (pH 9) by using rhodamine B (Φfl=0.65) in ethanol as a control for fluorescence standard.

[4] = pKa from pH-dependent absorbance in phosphate buffer
Protocol: The measurement was performed in a 0.1 M phosphate buffer (pH 9) containing 1% DMSO. pKa was obtained from the absorbance measured in a phosphate buffer (pH 9) by monophasic or biphasic curve fitting.

[5] = Evaluation of calcium fluorescent probes: absorption and fluorescence spectra at various free Ca2+ concentrations; type: binding; conditions: for Kd: Ca2+; for Kd / Φfl in 0 μM free [Ca2+] buffer / λabs in 0 μM free [Ca2+] buffer / λfl in 0 μM free [Ca2+] buffer / Φfl in 39 μM free [Ca2+] buffer / λabs in 39 μM free [Ca2+] buffer / λfl in 39 μM free [Ca2+] buffer: 30 mM MOPS buffer pH 7.2, 100 mM KCl, 10 mM EGTA, 22°C; for Change of fluorescence intensity with Ca2+ ion concentration: free Ca2+ 0 to 35/39 μM; for Change of fluorescence intensity with Ca2+ ion concentration / Change of absorption spectra with Ca2+ ion concentration: pH 7.2, 22°C; for Change of absorption spectra with Ca2+ ion concentration: free Ca2+ 0 to 39 μM
Protocol: Fluorescence of Calcium TokyoMagenta obtained in Example 3 was measured in the presence of calcium ions of various concentrations. Free calcium ions at various concentrations (0, 0.017, 0.038, 0.065, 0.100, 0.150, 0.225, 0.351, 0.602, 1.35, and 35 μM) was added to the solution of Calcium TokyoMagenta (1 μM) dissolved in a 30 mM MOPS buffer (pH 7.2) containing 100 mM potassium chloride and 10 mM EGTA, and the fluorescence spectrum was measured at 22° C. (excitation wavelength: 550 nm).
The fluorescent probes prepared in Examples 13 and 14 were evaluated. Ca^2+-dependent changes of absorption spectra and fluorescence spectra of CaTM-1 (a) and CaTM-2 (b) were measured in a 30 mM 3-(N-morpholino)propanesulfonic acid (MPOS) buffer (pH 7.2) containing 100 mM potassium chloride and 10 mM ethylene glycol tetraacetic acid (EGTA) at 22° C. in the presence of various concentrations of free Ca^2+ ions (0, 0.017, 0.038, 0.065, 0.100, 0.150, 0.225, 0.351, 0.602, 1.35, and 39 μM). […] Thus, it was confirmed that they functioned as a fluorescent probe for measuring calcium ions in a sample by using fluorescence.

[6] = test system: A549 cells; test: Localization of probes in live A549 cells by fluorescence; type: cell-based; conditions: live A549 cells loaded with the AM ester; hydrolysed in cell by esterase
Protocol: Among the photographs, (c) to (e) show Rhod-2 localized in the mitochondria. The fluorescence imaging was performed by incubating Rhod-2 AM (3 μM) with Mito Tracker Green FM (0.2 μM). […] The scale bars indicate 10 μm.
(§2) Change of calcium concentration induced by histamine in a HeLa cell was measured by using CaTM-2-AM or Rhod-2-AM. A HeLa cell loaded with 3 μM CaTM-2-AM ((a) to (d)) or Rhod-2-AM ((e) to (h)) in HBSS was stimulated with histamine (1 μM). Further, localization of CaTM-2-AM (a) and Rhod-2-AM (b) in live A549 cells loaded with each of them was investigated by measuring fluorescence.

[7] = test system: neuronal action potential; test: Continuous calcium ion imaging with patch clamping in a cell membrane adhered state; type: cell-based; conditions: fluorescence method with simultaneous patch clamping
Excerpt: The result of continuous imaging of calcium ions performed by the patch clamping method in a cell membrane adhered state is shown in FIG. 11.

[8] = test system: HeLa cells; test: Histamine-induced calcium concentration change in HeLa cells; type: cell-based; conditions: HeLa cells loaded with 3 μM AM ester in HBSS, histamine 1 μM; compared with Rhod-2
Protocol: FIG. 8b and FIG. 8c show fluorescence images obtained with CaTM-2 at the times indicated with ▾ in FIG. 8d, and FIG. 8f and FIG. 8g show fluorescence images obtained with Rhod-2 at the times indicated with ▾ in FIG. 8h. FIG. 8d and FIG. 8h show fluorescence change in individual cells specified in FIG. 8a and FIG. 8e, respectively. The scale bars indicate 30 μm.
as §2

[9] = Optical characteristics (absorption, fluorescence, quantum yield) in phosphate buffer, Table 2; conditions: phosphate buffer (pH 9)
Protocol: In the table, the items attached with the letter a were measured in a phosphate buffer (pH 9), and the item attached with the letter b was measured in a 0.1 M phosphate buffer containing 1% DMSO.

[10] = in ethanol; control for fluorescence standard; cited from earlier work
[11] = 0.1 M phosphate buffer containing 1% DMSO

C[Si]1(C)C2=C(Cl)C(=O)C=CC2=C(c2ccccc2C(=O)O)c2ccc(O)c(Cl)c21 [2-COOH DCTM]
λmax,fl [1]: 607 nm
Φfl [1]: 0.48
λmax,abs pH 9 [1]: 591 nm

COc1ccc(C)cc1C1=C2C=CC(=O)C=C2[Si](C)(C)c2cc(O)ccc21 [2-OMe-5-Me, 2-Methoxy-5-methyl TokyoMagenta]
Oxidation potential (V vs SCE) [2]: 1.57 V vs SCE
Φfl [3]: 0.14

2-Me Ge-TM
pKa [4, 11]: 6.7

COc1ccc(OC)c(C2=C3C=CC(=O)C=C3[Si](C)(C)c3cc(O)ccc32)c1 [2,5-DiOMe, 2,5-Dimethoxy TokyoMagenta]
Oxidation potential (V vs SCE) [2]: 1.26 V vs SCE
Φfl [3]: 0

Calcium TokyoMagenta
Kd ([5]; probe 1 μM, excitation 550 nm, read-out: Kd value): 250 nM
Change of fluorescence intensity with Ca2+ ion concentration [5]: Increase of the fluorescence intensity was observed with increase of the calcium ion concentration

CaTM-2
Intracellular localization [6]: uniformly distributed in the cytoplasm
Detection of neuronal action potential via transient change of intracellular calcium ion concentration [7]: observed with sufficient sensitivity
Detection of calcium vibration induced by histamine stimulation [8]: more sharply detected the calcium vibration induced by histamine stimulation
Φfl in 0 μM free [Ca2+] buffer [5]: 0.024
λabs in 0 μM free [Ca2+] buffer [5]: 597 nm
λfl in 0 μM free [Ca2+] buffer [5]: 609 nm
Φfl in 39 μM free [Ca2+] buffer [5]: 0.39
λabs in 39 μM free [Ca2+] buffer [5]: 597 nm
λfl in 39 μM free [Ca2+] buffer [5]: 609 nm
Kd ([5]; read-out: Kd): 200 nM
Change of absorption spectra with Ca2+ ion concentration [5]: not changed
Change of fluorescence intensity with Ca2+ ion concentration [5]: fluorescence intensity was increased with increasing of Ca^2+ ion concentration

CC[Si]1(CC)C2=CC(=O)C=CC2=C(c2ccccc2C)c2ccc(O)cc21 [2-Me DiEtTM]
Φfl [9]: 0.48
λabs [9]: 582 nm
λfl [9]: 601 nm

Cc1ccc(C2=C3C=CC(=O)C=C3[Si](C)(C)c3cc(O)ccc32)c(C)c1 [2,4-DiMe, 2,4-Dimethyl TokyoMagenta]
Oxidation potential (V vs SCE) [2]: 2.08 V vs SCE
Φfl [3]: 0.41

Cc1ccccc1C1=C2C=CC(=O)C(F)=C2[Si](C)(C)c2c1ccc(O)c2F [2-Me DFTM]
λmax,fl [1]: 598 nm
Φfl [1]: 0.57
λmax,abs pH 3 [1]: 465 nm
λmax,abs pH 9 [1]: 583 nm

Cc1ccccc1C1=C2C=CC(=O)C(Cl)=C2[Si](C)(C)c2c1ccc(O)c2Cl [2-Me DCTM]
λmax,fl [1]: 607 nm
Φfl [1]: 0.48
λmax,abs pH 3 [1]: 477 nm
λmax,abs pH 9 [1]: 595 nm

Cc1ccc(C)c(C2=C3C=CC(=O)C=C3[Si](C)(C)c3cc(O)ccc32)c1 [2,5-DiMe, 2,5-Dimethyl TokyoMagenta]
Oxidation potential (V vs SCE) [2]: 1.98 V vs SCE
Φfl [3]: 0.44

CaTM-1
Φfl in 0 μM free [Ca2+] buffer [5]: 0.066
λabs in 0 μM free [Ca2+] buffer [5]: 585 nm
λfl in 0 μM free [Ca2+] buffer [5]: 603 nm
Φfl in 39 μM free [Ca2+] buffer [5]: 0.37
λabs in 39 μM free [Ca2+] buffer [5]: 585 nm
λfl in 39 μM free [Ca2+] buffer [5]: 603 nm
Kd ([5]; read-out: Kd): 380 nM
Change of absorption spectra with Ca2+ ion concentration [5]: not changed
Change of fluorescence intensity with Ca2+ ion concentration [5]: fluorescence intensity was increased with increasing of Ca^2+ ion concentration

COc1ccccc1C1=C2C=CC(=O)C=C2[Si](C)(C)c2cc(O)ccc21 [2-OMe, 2-Methoxy TokyoMagenta]
Oxidation potential (V vs SCE) [2]: 1.75 V vs SCE
Φfl [3]: 0.31

C[Si]1(C)C2=C(F)C(=O)C=CC2=C(c2ccccc2C(=O)O)c2ccc(O)c(F)c21 [2-COOH DFTM]
λmax,fl [1]: 596 nm
Φfl [1]: 0.54
λmax,abs pH 9 [1]: 581 nm

Rhod-2 [reference compound]
Intracellular localization [6]: accumulated in mitochondria

CCN(CC)c1ccc2c(-c3ccccc3C(=O)O)c3ccc(=[N+](CC)CC)cc-3oc2c1.[Cl-] [rhodamine B]
Φfl of fluorescence standard [10]: 0.65

Cc1ccccc1C1=C2C=CC(=O)C=C2[Si](C)(C)c2cc(O)ccc21 [2-Me TM, 2-Me TokyoMagenta]
λmax,fl [1]: 598 nm
Φfl [1]: 0.42
λmax,abs pH 3 [1]: 472 nm
λmax,abs pH 9 [1]: 582 nm
Oxidation potential (V vs SCE) [2]: 2.19 V vs SCE
Φfl [9]: 0.42
λabs [9]: 582 nm
λfl [9]: 598 nm
pKa [4, 11]: 6.8
pKa ([4]; from absorbance in phosphate buffer by monophasic or biphasic curve fitting): 6.8
Φfl [3]: 0.42

C[Si]1(C)C2=CC(=O)C=CC2=C(c2ccccc2C(=O)O)c2ccc(O)cc21 [2-COOH TM]
λmax,fl [1]: 598 nm
Φfl [1]: 0.38
λmax,abs pH 9 [1]: 582 nm

From patent publication US9170266B2, “Fluorescent probe” (THE UNIVERSITY OF TOKYO, priority 2011, dated 2015)
